Here are results for 30 compounds from patent publication US20240018122A1, “PYRIDAZINYL AMINO DERIVATIVES AS ALK5 INHIBITORS” (CHIESI FARMACEUTICI S.P.A., priority 2020, published 2024).

Sequence of human ALK5 (P36897 80-503 limits assumed): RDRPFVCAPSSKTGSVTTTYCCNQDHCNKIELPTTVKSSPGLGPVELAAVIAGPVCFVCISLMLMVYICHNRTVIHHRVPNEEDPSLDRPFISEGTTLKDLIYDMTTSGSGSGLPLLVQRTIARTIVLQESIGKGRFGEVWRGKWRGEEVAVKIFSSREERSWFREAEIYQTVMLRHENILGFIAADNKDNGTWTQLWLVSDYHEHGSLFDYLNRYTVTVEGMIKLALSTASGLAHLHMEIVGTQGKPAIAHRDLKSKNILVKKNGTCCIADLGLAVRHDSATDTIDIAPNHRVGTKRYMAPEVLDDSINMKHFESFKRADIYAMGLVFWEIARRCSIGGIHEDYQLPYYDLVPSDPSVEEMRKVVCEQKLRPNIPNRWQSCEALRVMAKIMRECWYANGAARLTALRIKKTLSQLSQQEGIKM

The first experiment has as its target human ALK5 (Homo sapiens (Human), UniProt P36897). Description: ADP-GLO Kinases assay, inhibitory activity on ALK5. The class given is biochemical.
Details: not given
For orientation: ADP-Glo turns the ADP formed in a reaction into a luminescent signal.
In turn, `Cc1nnc(-c2cc(Cl)ccc2F)cc1Nc1ccnc2cc(OC(=O)N3C[C@H]4C[C@@H]3CN4C)ccc12` [Example 159, 4-{[6-(5-chloro-2-fluorophenyl)-3-methylpyridazin-4-yl]amino}quinolin-7-yl (1R,4R)-5-methyl-2,5-diazabicyclo[2.2.1]heptane-2-carboxylate] returned a half-inhibitory concentration (IC50) of less than 1 nM.

For the compound `Cc1nnc(-c2cc(Cl)ccc2F)cc1Nc1ccnc2cc(OC(=O)N3C[C@@H]4C[C@H]3CN4C)ccc12` [Example 160, 4-{[6-(5-Chloro-2-Fluorophenyl)-3-Methylpyridazin-4-Yl]Amino}Quinolin-7-Yl (1S,4S)-5-Methyl-2,5-Diazabicyclo[2.2.1]Heptane-2-Carboxylate], the IC50 is less than 1 nM.

In turn, `Cc1nnc(-c2cc(Cl)ccc2F)cc1Nc1ccnc2cc(OC(=O)N3CCN(CCC4CCN(C)CC4)C(C(=O)OC4COC4)C3)ccc12` (stereo not drawn) [Example 168, 1-(4-{[6-(5-chloro-2-fluorophenyl)-3-methylpyridazin-4-yl]amino}quinolin-7-yl) 3-oxetan-3-yl 4-[2-(1-methylpiperidin-4-yl)ethyl]piperazine-1,3-dicarboxylate] had an IC50 of 1 to 5 nM.

The experiment is the same for the next values; noted with them: purified recombinant human ALK5 2.6 nM, TGFβ1 peptide substrate, 25° C, 150 min incubation, ADP-Glo detection; read-out: ALK5 IC50.
With `Cc1nnc(-c2cc(Cl)ccc2F)cc1Nc1ccnc(NC(=O)CCN2CC3(CN(C)C3)C2)c1` [Example 138, N-(4-{[6-(5-Chloro-2-Fluorophenyl)-3-Methylpyridazin-4-Yl]Amino}Pyridin-2-Yl)-3-{6-Methyl-2,6-Diazaspiro[3.3]Heptan-2-Yl}Propanamide], the IC50 was less than 1 nM.

Regarding `Cc1nnc(-c2cc(Cl)ccc2F)cc1Nc1ccnc(NC(=O)CCN2CCC(F)(F)CC2)c1` [Example 139, N-(4-{[6-(5-Chloro-2-Fluorophenyl)-3-Methylpyridazin-4-Yl]Amino}Pyridin-2-Yl)-3-(4,4-Difluoropiperidin-1-Yl)Propanamide], the IC50 was less than 1 nM.

Regarding `Cc1nnc(-c2cc(Cl)ccc2F)cc1Nc1ccnc(NC(=O)CCN2CCC(O)CC2)c1` [Example 140, N-(4-{[6-(5-Chloro-2-Fluorophenyl)-3-Methylpyridazin-4-Yl]Amino}Pyridin-2-Yl)-3-(4-Hydroxypiperidin-1-Yl)Propanamide], the IC50 was less than 1 nM.

Take `Cc1nnc(-c2cc(Cl)ccc2F)cc1Nc1ccnc(NC(=O)NCCN2CCN(C)CC2)c1` [Example 141, 1-(4-{[6-(5-Chloro-2-Fluorophenyl)-3-Methylpyridazin-4-Yl]Amino}Pyridin-2-Yl)-3-[2-(4-Methylpiperazin-1-Yl)Ethyl]Urea]: the IC50 is less than 1 nM.

For `Cc1nnc(-c2cc(Cl)ccc2F)cc1Nc1ccnc(NC(=O)CN2CC3(CN(C)C3)C2)c1` [Example 143, N-(4-{[6-(5-Chloro-2-Fluorophenyl)-3-Methylpyridazin-4-Yl]Amino}Pyridin-2-Yl)-2-{6-Methyl-2,6-Diazaspiro[3.3]Heptan-2-Yl}Acetamide], the IC50 is less than 1 nM.

Take `Cc1nnc(-c2cc(Cl)ccc2F)cc1Nc1ccnc(NC(=O)CN2CCN(C)C3(CC3)C2)c1` [Example 144, N-(4-{[6-(5-Chloro-2-Fluorophenyl)-3-Methylpyridazin-4-Yl]Amino}Pyridin-2-Yl)-2-{4-Methyl-4,7-Diazaspiro[2.5]Octan-7-Yl}Acetamide]: the IC50 was less than 1 nM.

`Cc1nnc(-c2cc(Cl)ccc2F)cc1Nc1ccnc(NC(=O)CCN2CCN(C)C(C)C2)c1` (stereo not drawn) [Example 145, N-(4-{[6-(5-Chloro-2-Fluorophenyl)-3-Methylpyridazin-4-Yl]Amino}Pyridin-2-Yl)-3-(3,4-Dimethylpiperazin-1-Yl)Propanamide]: the IC50 was less than 1 nM.

On to `Cc1nnc(-c2cc(Cl)ccc2F)cc1Nc1ccnc(NC(=O)CCN2CC3CC(C2)N3C)c1` [Example 146, N-(4-{[6-(5-Chloro-2-Fluorophenyl)-3-Methylpyridazin-4-Yl]Amino}Pyridin-2-Yl)-3-{6-Methyl-3,6-Diazabicyclo[3.1.1]Heptan-3-Yl}Propanamide], for which the IC50 is less than 1 nM.

As for `Cc1nnc(-c2cc(Cl)ccc2F)cc1Nc1ccnc(NC(=O)CCN2CCOC3(CN(C)C3)C2)c1` [Example 147, N-(4-{[6-(5-chloro-2-fluorophenyl)-3-methylpyridazin-4-yl]amino}pyridin-2-yl)-3-{2-methyl-5-oxa-2,8-diazaspiro[3.5]nonan-8-yl}propanamide], the IC50 was less than 1 nM.

Take `CN1CCN(CCOc2cc3nccc(Nc4cnnc(-c5cc(Cl)ccc5F)c4)c3cc2O)CC1` [Example 148, 4-{[6-(5-Chloro-2-Fluorophenyl)Pyridazin-4-Yl]Amino}-7-[2-(4-Methylpiperazin-1-Yl)Ethoxy]Quinolin-6-Ol]: the IC50 is less than 1 nM.

As for `Cc1nnc(-c2cc(Cl)ccc2F)cc1Nc1ccnc(NC(=O)N2CCC3(CC2)CN(C)C3)c1` [Example 149, N-(4-{[6-(5-Chloro-2-Fluorophenyl)-3-Methylpyridazin-4-Yl]Amino}Pyridin-2-Yl)-2-Methyl-2,7-Diazaspiro[3.5]Nonane-7-Carboxamide], the IC50 was less than 1 nM.

As for `Cc1nnc(-c2cc(Cl)ccc2F)cc1Nc1ccnc(NC(=O)N2CCC3(CCN(C)C3)CC2)c1` [Example 150, N-(4-{[6-(5-Chloro-2-Fluorophenyl)-3-Methylpyridazin-4-Yl]Amino}Pyridin-2-Yl)-2-Methyl-2,8-Diazaspiro[4.5]Decane-8-Carboxamide], the IC50 was less than 1 nM.

In the case of `Cc1nnc(-c2cc(Cl)c(F)cc2F)cc1Nc1ccnc(NC(=O)CCN2CCN(C)CC2)c1` [Example 151, N-(4-{[6-(5-chloro-2,4-difluorophenyl)-3-methylpyridazin-4-yl]amino}pyridin-2-yl)-3-(4-methylpiperazin-1-yl)propanamide], the IC50 is less than 1 nM.

As for `Cc1nnc(-c2cc(Cl)ccc2F)cc1Nc1ccnc2cc(OC(=O)N3CC(N4CCCC4)C3)ccc12` [Example 152, 4-{[6-(5-Chloro-2-Fluorophenyl)-3-Methylpyridazin-4-Yl]Amino}Quinolin-7-Yl 3-(Pyrrolidin-1-Yl)Azetidine-1-Carboxylate], the IC50 is less than 1 nM.

Consider `Cc1nnc(-c2cc(Cl)ccc2F)cc1Nc1ccnc2cc(OC(=O)N3CCC(N4CCC4)CC3)ccc12` [Example 153, 4-{[6-(5-Chloro-2-Fluorophenyl)-3-Methylpyridazin-4-Yl]Amino}Quinolin-7-Yl 4-(Azetidin-1-Yl)Piperidine-1-Carboxylate], for which the IC50 was less than 1 nM.

`Cc1nnc(-c2cc(Cl)ccc2F)cc1Nc1ccnc(NC(=O)CN2CCCNCC2)c1` [Example 154, N-(4-{[6-(5-Chloro-2-Fluorophenyl)-3-Methylpyridazin-4-Yl]Amino}Pyridin-2-Yl)-2-(1,4-Diazepan-1-Yl)Acetamide]: the IC50 is less than 1 nM.

`CNCCn1cc(C(=O)Nc2cc(Nc3cc(-c4cc(Cl)ccc4F)nnc3C)ccn2)cn1` [Example 155, N-(4-{[6-(5-Chloro-2-Fluorophenyl)-3-Methylpyridazin-4-Yl]Amino}Pyridin-2-Yl)-1-[2-(Methylamino)Ethyl]-1H-Pyrazole-4-Carboxamide]: the IC50 is less than 1 nM.

For the compound `Cc1nnc(-c2cc(Cl)ccc2F)cc1Nc1ccnc(NC(=O)c2cnn(CCN(C)C)c2)c1` [Example 156, N-(4-{[6-(5-Chloro-2-Fluorophenyl)-3-Methylpyridazin-4-Yl]Amino}Pyridin-2-Yl)-1-[2-(Dimethylamino)Ethyl]-1H-Pyrazole-4-Carboxamide], the IC50 is less than 1 nM.

Turning to `Cc1nnc(-c2cc(Cl)ccc2F)cc1Nc1ccnc(NC(=O)CC2CCN(C)CC2)c1` [Example 157, N-(4-{[6-(5-Chloro-2-Fluorophenyl)-3-Methylpyridazin-4-Yl]Amino}Pyridin-2-Yl)-2-(1-Methylpiperidin-4-Yl)Acetamide], the IC50 is less than 1 nM.

On to `Cc1nnc(-c2cc(Cl)ccc2F)cc1Nc1ccnc(NC(=O)CCCN2CCCNCC2)c1` [Example 158, N-(4-{[6-(5-Chloro-2-Fluorophenyl)-3-Methylpyridazin-4-Yl]Amino}Pyridin-2-Yl)-4-(1,4-Diazepan-1-Yl)Butanamide], for which the IC50 was less than 1 nM.

`Cc1nnc(-c2cc(Cl)ccc2F)cc1Nc1ccnc(NC(=O)CCCN2CCCN(C)CC2)c1` [Example 161, N-(4-{[6-(5-Chloro-2-Fluorophenyl)-3-Methylpyridazin-4-Yl]Amino}Pyridin-2-Yl)-4-(4-Methyl-1,4-Diazepan-1-Yl)Butanamide]: the IC50 was less than 1 nM.

For `Cc1nnc(-c2cc(Cl)ccc2F)cc1Nc1ccnc(NC(=O)[C@H]2C[C@@H](N3CCN(C)CC3)C2)c1` [Example 162, Cis N-(4-{[6-(5-Chloro-2-Fluorophenyl)-3-Methylpyridazin-4-Yl]Amino}Pyridin-2-Yl)-3-(4-Methylpiperazin-1-Yl)Cyclobutane-1-Carboxamide], the IC50 is less than 1 nM.

In the case of `Cc1nnc(-c2cc(Cl)ccc2F)cc1Nc1ccnc(NC(=O)CCN2CCN(C)CC2CO)c1` (stereo not drawn) [Example 163, N-(4-{[6-(5-chloro-2-fluorophenyl)-3-methylpyridazin-4-yl]amino}pyridin-2-yl)-3-[2-(hydroxymethyl)-4-methylpiperazin-1-yl]propanamide], the IC50 is less than 1 nM.

For `Cc1nnc(-c2cc(Cl)ccc2F)cc1Nc1ccnc(NC(=O)CN2CCNCC2)c1` [Example 164, N-(4-{[6-(5-Chloro-2-Fluorophenyl)-3-Methylpyridazin-4-Yl]Amino}Pyridin-2-Yl)-2-(Piperazin-1-Yl)Acetamide], the IC50 was less than 1 nM.

Consider `COC(=O)c1cc2c(Nc3cc(-c4cc(Cl)ccc4F)nnc3CO)ccnc2cc1OCCN1CCN(C)CC1` [Example 165, Methyl 4-{[6-(5-Chloro-2-Fluorophenyl)-3-(Hydroxymethyl)Pyridazin-4-Yl]Amino}-7-[2-(4-Methylpiperazin-1-Yl)Ethoxy]Quinoline-6-Carboxylate], for which the IC50 was less than 1 nM.

On to `Cc1nnc(-c2cc(Cl)ccc2F)cc1Nc1ccnc(NC(=O)CN2CCCN(C)CC2)c1` [Example 166, N-(4-{[6-(5-Chloro-2-Fluorophenyl)-3-Methylpyridazin-4-Yl]Amino}Pyridin-2-Yl)-2-(4-Methyl-1,4-Diazepan-1-Yl)Acetamide], for which the IC50 is less than 1 nM.

For the compound `Cc1nnc(-c2cc(Cl)ccc2F)cc1Nc1ccnc(Nc2ccn(CCN3CCN(C)CC3)n2)c1` [Example 167, N-4-[6-(5-Chloro-2-Fluorophenyl)-3-Methylpyridazin-4-Yl]-N-2-{1-[2-(4-Methylpiperazin-1-Yl)Ethyl]-1H-Pyrazol-3-Yl}Pyridine-2,4-Diamine], the IC50 was less than 1 nM.

In general, IC50 refers to the concentration at which inhibition is half-maximal.
